Results taken from EP2424865B1 (Boehringer Ingelheim International GmbH, priority 2009, dated 2010).
Like-named read-outs stand apart in the source and are kept apart here. Each block holds one molecule with its values, some of them ahead of it.

Tests used:
[1] = target: human recombinant cytochrome P450 2C19 (Homo sapiens, UniProt P33261); experiment: Biological Test Example 8: CYP2C19 inhibition ([N-methyl-14C]-Diazepam N-demethylation)
CYP2C9 = CYP2C9 (Homo sapiens, UniProt P11712); experiment: Biological Test Example 9: CYP2C9 inhibition (Invitrogen kit, fluorogenic substrate OOMR); assay type: in vitro ADME
11β-HSD1 [2] = target: T1, 11β-HSD1 (Homo sapiens, UniProt P28845)
11β-HSD1 [3] = target: T1, 11β-HSD1; experiment: biochemical; conditions: read-out: Average % control inhibition at 100 nM
[4] = target: human recombinant cytochrome P450 2C9 (Homo sapiens, UniProt P11712); experiment: Biological Test Example 7: CYP2C9 inhibition ([O-methyl-14C]-Naproxen O-demethylation)
[5] = target: human recombinant cytochrome P450 3A4 (Homo sapiens, UniProt P08684)
Plasma protein = experiment: Biological Test Example 5: fraction unbound in human plasma (equilibrium dialysis); assay type: in vitro ADME
[6] = read-out: Biological Test Example 1 IC50 Range, microsomal preparation of human 11β-HSD1, SPA
[7] = Invitrogen kit, fluorogenic substrate OOMR
[8] = read-out: Biological Test Example 1 IC50, Examples

T1 sequence (P28845 whole entry): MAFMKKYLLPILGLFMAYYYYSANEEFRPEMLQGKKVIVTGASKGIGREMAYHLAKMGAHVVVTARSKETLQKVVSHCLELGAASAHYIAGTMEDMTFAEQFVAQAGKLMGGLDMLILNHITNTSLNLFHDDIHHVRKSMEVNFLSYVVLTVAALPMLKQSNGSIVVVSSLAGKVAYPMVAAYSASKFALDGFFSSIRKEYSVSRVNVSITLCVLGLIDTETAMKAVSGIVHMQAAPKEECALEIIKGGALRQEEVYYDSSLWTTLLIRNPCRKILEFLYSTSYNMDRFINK
Chain of human recombinant cytochrome P450 3A4 (P08684 whole entry): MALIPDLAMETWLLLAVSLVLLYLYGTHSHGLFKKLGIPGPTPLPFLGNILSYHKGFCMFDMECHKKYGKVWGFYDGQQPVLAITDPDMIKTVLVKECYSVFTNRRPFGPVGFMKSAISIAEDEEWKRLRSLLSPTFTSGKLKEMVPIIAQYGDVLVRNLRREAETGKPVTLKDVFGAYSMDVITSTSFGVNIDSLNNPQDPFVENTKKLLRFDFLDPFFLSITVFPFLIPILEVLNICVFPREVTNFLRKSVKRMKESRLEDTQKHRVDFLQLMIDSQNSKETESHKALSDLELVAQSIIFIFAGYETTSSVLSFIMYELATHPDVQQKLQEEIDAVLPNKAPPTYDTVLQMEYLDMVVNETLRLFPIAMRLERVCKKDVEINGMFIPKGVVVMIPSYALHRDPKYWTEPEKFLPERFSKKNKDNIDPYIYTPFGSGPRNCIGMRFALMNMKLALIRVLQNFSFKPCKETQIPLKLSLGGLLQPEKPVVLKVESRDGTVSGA
Chain of human recombinant cytochrome P450 2C19 (P33261 whole entry): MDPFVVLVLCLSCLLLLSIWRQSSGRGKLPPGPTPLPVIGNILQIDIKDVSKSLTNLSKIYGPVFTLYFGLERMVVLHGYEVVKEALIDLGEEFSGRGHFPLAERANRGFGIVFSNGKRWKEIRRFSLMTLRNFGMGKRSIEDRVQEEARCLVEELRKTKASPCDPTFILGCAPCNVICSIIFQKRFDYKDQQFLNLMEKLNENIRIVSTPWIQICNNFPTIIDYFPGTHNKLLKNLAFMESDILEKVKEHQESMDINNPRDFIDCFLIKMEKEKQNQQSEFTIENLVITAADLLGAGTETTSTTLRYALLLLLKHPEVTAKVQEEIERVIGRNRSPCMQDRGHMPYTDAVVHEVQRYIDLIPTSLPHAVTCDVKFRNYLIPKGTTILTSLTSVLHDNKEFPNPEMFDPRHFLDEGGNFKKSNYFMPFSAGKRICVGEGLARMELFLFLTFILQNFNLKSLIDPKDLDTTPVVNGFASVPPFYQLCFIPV
Chain of human recombinant cytochrome P450 2C9 (P11712 whole entry): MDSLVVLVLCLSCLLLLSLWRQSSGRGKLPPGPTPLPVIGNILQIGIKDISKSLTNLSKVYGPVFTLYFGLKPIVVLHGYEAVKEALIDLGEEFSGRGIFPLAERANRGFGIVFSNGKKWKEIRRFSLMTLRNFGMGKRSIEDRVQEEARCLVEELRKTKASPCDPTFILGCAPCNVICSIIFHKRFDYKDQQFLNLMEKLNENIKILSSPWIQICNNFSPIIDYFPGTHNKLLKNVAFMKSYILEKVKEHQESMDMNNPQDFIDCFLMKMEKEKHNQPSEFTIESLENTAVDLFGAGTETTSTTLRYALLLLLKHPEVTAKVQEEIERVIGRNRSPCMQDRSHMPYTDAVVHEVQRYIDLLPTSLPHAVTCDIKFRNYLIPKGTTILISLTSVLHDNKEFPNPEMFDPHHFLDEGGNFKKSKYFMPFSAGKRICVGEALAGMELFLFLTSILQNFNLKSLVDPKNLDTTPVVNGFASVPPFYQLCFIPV
Chain of CYP2C9 (P11712 whole entry): as above

SMILES: CC[C@@H](c1ccc(-c2ccc(=O)n(C)c2)cc1)N1CC[C@](CCO)(c2ccccc2)OC1=O [Example 40, (S)-6-(2-hydroxyethyl)-3-((S)-1-(4-(1-methyl-6-oxo-1,6-dihydropyridin-3-yl)phenyl)propyl)-6-phenyl-1,3-oxazinan-2-one]
IC50 [1]: 13 µM
IC50 (CYP2C9): 27.9 µM

SMILES: C[C@@H](c1ccc(-c2ccn(C3CC3)c(=O)c2)cc1)N1CCC(CC(C)(C)O)(C2CCOCC2)OC1=O (single isomer, unassigned) [Example 91 Isomer 2]
Biological Test Example 1 Average % inhibition at 100 nM (11β-HSD1 [2]; 0.1 µM): 13.8%
IC50 (11β-HSD1 [2]; [6]): > 0.1 µM

SMILES: C[C@@H](c1ccc(-c2ccn(C3CC3)c(=O)c2)cc1)N1CCC(CC(C)(C)O)(C2CC(F)(F)C2)OC1=O (single isomer, unassigned) [Example 95 Isomer 2]
Biological Test Example 1 Average % inhibition at 100 nM (11β-HSD1 [2]; 0.1 µM): 8.0%
IC50 (11β-HSD1 [2]; [6]): > 0.1 µM

SMILES: C[C@@H](c1ccc(-c2ccn(CC(C)(C)O)c(=O)c2)cc1)N1CC[C@](CC(C)(C)O)(c2ccccc2)OC1=O [Example 80, (S)-6-(2-Hydroxy-2-methyl-propyl)-3-((S)-1-{4-[1-(2-hydroxy-2-methylpropyl)-2-oxo-1,2-dihydro-pyridin-4-yl]-phenyl}-ethyl)-6-phenyl-[1,3]oxazinan-2-one]
IC50 [1]: 38 µM
inhibition at 0.1 µM (11β-HSD1 [3]): 37%

SMILES: C[C@@H](c1ccc(-c2ccn(C)c(=O)c2)cc1)N1CC[C@](CC(C)(C)C#N)(c2ccccc2)OC1=O [Example 50, 2,2-dimethyl-3-((R)-3-((S)-1-(4-(1-methyl-2-oxo-1,2-dihydropyridin-4-yl)phenyl)ethyl)-2-oxo-6-phenyl-1,3-oxazinan-6-yl)propanenitrile]
IC50 [1]: 27 µM
IC50 (CYP2C9): 5.1 µM
IC50 [4]: 11 µM
IC50 [5]: 14 µM

IC50 [1]: 46 µM
IC50 (CYP2C9; [7]): 14.8 µM
IC50 [4]: 29 µM
IC50 [5]: 32 µM
SMILES: C[C@@H](c1ccc(-c2ccc(=O)n(C)c2)cc1)N1CC[C@](CC(C)(C)C#N)(c2ccccc2)OC1=O [Example 49, 2,2-dimethyl-3-((R)-3-((S)-1-(4-(1-methyl-6-oxo-1,6-dihydropyridin-3-yl)phenyl)ethyl)-2-oxo-6-phenyl-1,3-oxazinan-6-yl)propanenitrile]

SMILES: C[C@@H](c1ccc(-c2cc(=O)n(C)cc2F)cc1)N1CC[C@](CC(C)(C)O)(c2ccccc2)OC1=O [Example 79, 3-{(S)-1-[4-(5-Fluoro-1-methyl-2-oxo-1,2-dihydro-pyridin-4-yl)-phenyl]-ethyl}-(S)-6-(2-hydroxy-2-methyl-propyl)-6-phenyl-[1,3]oxazinan-2-one]
inhibition at 0.1 µM (11β-HSD1 [3]): 15%

SMILES: Cc1cc(-c2ccn(C3CC3)c(=O)c2)cc(C)c1CN1CCC(CC(C)(C)O)(c2ccccc2)OC1=O (centres unmarked) [Example 98]
inhibition at 0.1 µM (11β-HSD1 [3]): 67%

IC50 (CYP2C9; [7]): 12.1 µM
Biological Test Example 5 (%) (Plasma protein; Comparator Compounds): 0.4%
SMILES: C[C@@H](c1ccc(-c2ccc(=O)n(C)c2)cc1)N1CC[C@](CC(C)(C)N(C)S(C)(=O)=O)(c2ccccc2)OC1=O [Example 12, N-methyl-N-(2-methyl-1-((S)-3-((S)-1-(4-(1-methyl-6-oxo-1,6-dihydropyridin-3-yl)phenyl)ethyl)-2-oxo-6-phenyl-1,3-oxazinan-6-yl)propan-2-yl)methanesulfonamide]

SMILES: C[C@@H](c1ccc(-c2ccn(CC(C)(C)CO)c(=O)c2)cc1)N1CC[C@](CC(C)(C)O)(c2ccccc2)OC1=O [Example 90, 3-((S)-1-{4-[1-(3-Hydroxy-2,2-dimethyl-propyl)-2-oxo-1,2-dihydro-pyridin-4-yl]-phenyl}-ethyl)-(S)-6-(2-hydroxy-2-methyl-propyl)-6-phenyl-[1,3]oxazinan-2-one]
inhibition at 0.1 µM (11β-HSD1 [3]): 4%

SMILES: C[C@@H](c1ccc(-c2ccn(C3CC3)c(=O)c2)cc1)N1CCC(CC(C)(C)O)(C2CCOCC2)OC1=O (single isomer, unassigned; isomer 2) [91 Isomer 2]
IC50 (11β-HSD1 [2]; [8]): > 0.1 µM

SMILES: C[C@@H](c1ccc(-c2ccn(C3CC3)c(=O)c2)cc1)N1CCC(CC(C)(C)O)(C2CCOCC2)OC1=O (single isomer, unassigned; isomer 1) [91 Isomer 1]
IC50 (11β-HSD1 [2]; [8]): > 0.1 µM

SMILES: C[C@@H](c1ccc(-c2ccc(=O)n(C)c2)cc1)N1CC[C@](CC(C)(C)O)(c2ccccc2)OC1=O [Example 37, (S)-6-(2-hydroxy-2-methylpropyl)-3-((S)-1-(4-(1-methyl-6-oxo-1,6-dihydropyridin-3-yl)phenyl)ethyl)-6-phenyl-1,3-oxazinan-2-one]
IC50 (CYP2C9): 24.8 µM
IC50 [4]: 43 µM
IC50 [5]: 48 µM
Biological Test Example 5 (%) (Plasma protein; Examples): 14.6%

SMILES: CC[C@@H](c1ccc(-c2ccn(C)c(=O)c2)cc1)N1CC[C@](CC(C)(C)O)(c2ccccc2)OC1=O [Example 55, (S)-6-(2-hydroxy-2-methylpropyl)-3-((S)-1-(4-(1-methyl-2-oxo-1,2-dihydropyridin-4-yl)phenyl)propyl)-6-phenyl-1,3-oxazinan-2-one]
IC50 [1]: 13 µM
IC50 (CYP2C9): 24.3 µM
IC50 [4]: 29 µM
IC50 [5]: > 50 µM
Biological Test Example 5 (%) (Plasma protein; Examples): 7.1%

SMILES: C[C@@H](c1ccc(-c2ccn(C3CC3)c(=O)c2)cc1)N1CCC(CC(C)(C)C)(CC(C)(C)O)OC1=O (single isomer, unassigned) [Example 94 Isomer 2]
Biological Test Example 1 Average % inhibition at 100 nM (11β-HSD1 [2]; listed as EXAMPLE 94 Isomer 2, 0.1 µM): 8.2%
IC50 (11β-HSD1 [2]; [6]): > 0.1 µM

IC50 (CYP2C9; [7]): 28.7 µM
Biological Test Example 5 (%) (Plasma protein; Examples): 12.3%
SMILES: C[C@@H](c1ccc(-c2ccc(=O)n(C)c2)cc1)N1CC[C@](CC(C)(C)O)(c2ccc(F)cc2)OC1=O [Example 32, (S)-6-(4-fluorophenyl)-6-(2-hydroxy-2-methylpropyl)3-((S)-1-(4-(1-methyl-6-oxo-1,6-dihydropyridin-3-yl)phenyl)ethyl)-1,3-oxazinan-2-one]

SMILES: C[C@@H](c1ccc(-c2ccc(=O)[nH]c2)cc1)N1CC[C@](CC(C)(C)O)(c2ccccc2)OC1=O [Example 1, (S)-6-(2-hydroxy-2-methytpropyl)-3-((S)-1-(4-(6-oxo-1,6-dihydropyridin-3-yl)phenyl)ethyl)-6-phenyl-1,3-oxazinan-2-one]
IC50 (CYP2C9; read-out: Biological Test Example 9 CYP2C9 IC50, comparator compounds, Invitrogen kit, fluorogenic substrate OOMR): 27 µM

SMILES: C[C@@H](c1ccc(-c2ccc(=O)n(CC3CC3)c2)cc1)N1CC[C@](CC(C)(C)O)(c2ccccc2)OC1=O [Example 76, 3-{(S)1-[4-(1-Cyclopropylmethyl-6-oxo-1,6-dihydro-pyridin-3-yl)-phenyl]-ethyt}-(S)-6-(2-hydroxy-2-methyl-propyl)-6-phenyl-[1,3]oxazinan-2-one]
IC50 [1]: 9 µM
IC50 [4]: 4 µM
IC50 [5]: 10 µM
inhibition at 0.1 µM (11β-HSD1 [3]): 17%

SMILES: C[C@@H](c1ccc(-c2ccn(C3CC3)c(=O)c2)cc1)N1CCC(CC(C)(C)O)(C2CC(F)(F)C2)OC1=O (single isomer, unassigned; isomer 1) [95 Isomer 1]
IC50 (11β-HSD1 [2]; [8]): > 0.1 µM

IC50 [1]: 17 µM
IC50 (CYP2C9; [7]): 24.6 µM
IC50 [4]: 43 µM
IC50 [5]: > 50 µM
SMILES: C[C@@H](c1ccc(-c2ccc(=O)n(C)c2)cc1)N1CC[C@](CCCO)(c2ccc(F)cc2)OC1=O [Example 33, (R)-6-(4-fluorophenyl)-6-(3-hydroxypropyl)-3-((S)-1-(4-(1-methyl-6-oxo-1,6-dihydropyridin-3-yl)phenyl)ethyl)-1,3-oxazinan-2-one]

SMILES: C[C@@H](c1ccc(-c2ccn(C3CC3)c(=O)c2)cc1)N1CCC(CC(C)(C)C)(CC(C)(C)O)OC1=O (single isomer, unassigned; isomer 1) [94 Isomer 1]
IC50 (11β-HSD1 [2]; [8]): > 0.1 µM
